Structures are written as SMILES. Converted amounts (≈) assume the structure as drawn.

The subject of series [1] is Caco-2. Description: Caco-2 permeability and efflux. The note with it: efflux ratio.
Series [2] in a line: Caco-2 permeability and efflux. The note with it: human, Caco-2. (In general: Caco-2 cells form a polarised layer with tight junctions and transporters.)
Series [3] is described as follows: Microsomal stability. The note with it: for microsomal CLint at 2 μM / microsomal CLint at 0.5 h, 2 µM: rat, microsomes, pH 7.4.
Series [4] in a line: Microsomal stability. The note with it: human, microsomes, pH 7.4.
Series [5] deals with p-cofilin Ser3 levels in SH-SY5Y cells. Put plainly: AlphaLISA SureFire p-cofilin assay. It is filed as cell-based. The note with it: Homo sapiens, 2 h, read-out: alphaLISA pIC50 p-cofilin (converted). For orientation: Alpha assays give light when donor and acceptor beads are brought close together.
Experimental: The AlphaLISA assay for detection of p-cofilin Ser3 levels was followed as previously described.[14] […] Cells were placed in the incubator for 2 h, after which the media was removed and the cells were lysed using 50 μL AlphaLISA 1× lysis buffer (PerkinElmer, USA) containing protease inhibitor cocktail (Sigma/Merck, Dorset, UK) and Pierce phosphatase inhibitor cocktail (Thermo Fisher Scientific, UK). The cell lysate was then transferred to a clean, flat-bottom, white 384-well plate, to which 5 μL/well of acceptor bead solution consisting of Reaction buffer 1, Reaction buffer 2, Activation Buffer and Acceptor Beads from pCofilin SureFire Ultra assay kit (PerkinElmer, USA, cat# ALSU-PCOF-A500) was added under dim light. After incubation at RT for 1 h, 5 μL/well of donor solution consisting of Dilution Buffer and Donor beads was added. The plate was read on a Pherastar reader (BMD Labtech Ltd., Aylesbury, UK) using an AlphaLISA cartridge and AlphaLISA plate settings.
Series [6] is described as follows: Unbound fraction in brain and plasma. The series is classed as in vitro ADME. The note with it: for fubrain: unbound fraction in brain; for fuplasma: unbound fraction in plasma.
Series [7] can be described thus: Thermodynamic solubility. The note with it: PBS, pH 7.
Series [8] relates to p-cofilin levels in WT and Fmr1 KO mouse brain slices. Put plainly: Western blot of p-cofilin in treated hippocampal brain slices. The note with it: 3 μM, 30 min, WT and Fmr1 KO (P7–9) brain slices. (Immunoblotting shows a protein as a band on a membrane.)
Experimental: Hippocampal slices were obtained from neonatal (postnatal days 7–9) wild type (WT) and Fmr1 KO mice originally supplied by Jackson Laboratories. […] Mice for experimentation were killed by cervical dislocation. […] The temporal aspects of the brain were trimmed, bisected, then glued to a metal plate, such that the midline was uppermost and horizontal. […] Each individual sample was suspended in 300 μL of buffer and lysed by pipetting on ice. Samples were centrifuged to pellet at 17,000g for 30 min at 4 °C. Protein was quantified using Biorad DC protein assay (Biorad, 5000112) and read on a PheraStar plate reader (BMG Labtech) and standardized to 2 mg/mL each sample.
Sample loading buffer was added to each sample at 1:4 concentrations and boiled for 5 min prior to use. […] Membranes were then blocked in 5% BSA TBST for 1 h at rt and then placed into LIMK1, p-cofilin, cofilin and actin primary antibody solutions at 4 °C overnight. The following day, membranes were washed 3× in TBST solution before being placed in appropriate secondary antibody solutions for 1 h at room temperature. Following a final 3 washes in TBST, the membranes were developed using ClarityMax ECL substrate (Biorad, UK) at a 1:1 ratio. The ECL solution was allowed to develop on the membrane for 5 min prior to visualizing using the CHEMIDOC imaging system (Biorad, UK). […]
Series [9] can be described thus: In vivo PK, p.o./i.p. dosing. The note with it: male, Sprague-Dawley, rat, plasma.
A short description of series [10]: In vivo PK, i.v. dosing. The note with it: male, Sprague-Dawley, rat, plasma; for CLint scaled: intravenous; for AUC(0-inf) at 1 h / Vd at 1 h / half-life at 1 h: iv.
Experimental: A satellite group of three animals were also administered i.v. test compound (dosed at 1 mg/kg in 10% DMSO/20% Cremophor/70% saline) and after 1 h, the animals culled and brain samples immediately prepared by homogenization in H2O and protein precipitation in MeCN. Bioanalysis on plasma and brain samples were performed using a UHPLC-tandem mass spectrometry using electrospray ionization.
Series [11] in a line: CNS penetration study. The note with it: male, Sprague-Dawley, rat, brain/plasma, iv, 1 mg/kg.

`O=C(c1ccc(S(=O)(=O)Nc2ccccc2)cc1)N(Cc1ccc(CCc2nnn[nH]2)cn1)CC1CC1` [Compound 79, N-(Cyclopropylmethyl)-4-(phenylsulfamoyl)-N-[[5-[2-(1H-tetrazol-5-yl)ethyl]-2-pyridyl]methyl]benzamide]: the “Caco-2 ER” value in series [1] is on record as 103. The Papp – broadly, the rate of passage across a membrane or cell layer, normalised by area and donor concentration – in series [2] was found to be 0.1 ×10⁻⁶ cm/s. Also, the microsomal CLint (in general, the rate of metabolic loss divided by the concentration) at 2 μM in series [3] came out at 12 µL/min/mg; in series [4], 22 µL/min/mg.

In [2], `O=C(c1ccc(S(=O)(=O)Nc2ccccc2)cc1)N(Cc1ccc(OCCO)cc1)CC1CC1` [Compound 86, N-(Cyclopropylmethyl)-N-[[4-(2-hydroxyethoxy)phenyl]methyl]-4-(phenylsulfamoyl)benzamide] came in with a Papp of 15 ×10⁻⁶ cm/s. Also, the figures for the microsomal CLint at 0.5 h, 2 µM in series [3] and in [4] were 420 µL/min/mg and 119 µL/min/mg, respectively. In [5], the IC50 is 56.2 nM. This compound gave a fubrain in series [6] of 0.9%. The same compound came in with a fuplasma in series [6] of 1.4%. Also, the solubility (usually the dissolved amount per volume that the medium holds) at 24 h in series [7] turned out to be 6 µM (≈ 2.88 µg/mL).

As to `CCn1c(=O)c(-c2ccc(Cl)cc2Cl)cc2cnc(Nc3ccc(N4CCNCC4)c(F)c3)nc21` [FRAX486], the “p-cofilin levels vs vehicle” value in series [8] is listed as “consistent reduction”.

As to `Cc1nc(CN(CC2CC2)C(=O)c2ccc(S(=O)(=O)Nc3ccccc3)cc2)ccc1NCCO` [Compound 82, N-(Cyclopropylmethyl)-N-[[5-(2-hydroxyethylamino)-6-methyl-2-pyridyl]methyl]-4-(phenylsulfamoyl)benzamide], the “Caco-2 ER” value in series [1] amounted to 81. This compound also had a Papp in series [2] of 0.6 ×10⁻⁶ cm/s. The figures for the microsomal CLint at 2 μM in series [3] and in [4] were 221 µL/min/mg and 97 µL/min/mg, respectively.

Turning to `CN(c1ccccc1)S(=O)(=O)c1ccc(C(=O)N(Cc2ccc(NCCO)cn2)CC2CC2)cc1` [Compound 84, N-(Cyclopropylmethyl)-N-[[5-(2-hydroxyethylamino)-2-pyridyl]methyl]-4-[methyl(phenyl)sulfamoyl]benzamide], the “Caco-2 ER” value in series [1] worked out at 12. In addition, the Papp in series [2] was 5.7 ×10⁻⁶ cm/s. Further, the microsomal CLint at 2 μM in [3] was 409 µL/min/mg; in series [4], 344 µL/min/mg.

`COCCNc1ccc(CN(CC2CC2)C(=O)c2ccc(S(=O)(=O)Nc3ccccc3)cc2)nc1` [Compound 75, N-(Cyclopropylmethyl)-N-[[5-(2-methoxyethylamino)-2-pyridyl]methyl]-4-(phenylsulfamoyl)benzamide] had an apparent permeability coefficient (Papp) in series [2] of 8.3 ×10⁻⁶ cm/s. Moreover, in [3], the microsomal CLint at 0.5 h, 2 µM worked out at 327 µL/min/mg. In series [9] (ip, 10 mg/kg), the Cmax (as a rule, the maximum level reached in the sampled fluid or tissue) at 1 h came out at 134 ng/mL; the Tmax (usually the time at which the peak concentration occurs) at 1 h was 18 min; the bioavailability (commonly the share of a dose that reaches the circulation, judged against a reference dose that is usually intravenous) was 55%. Moreover, in series [9] (po, 3 mg/kg), the Cmax at 1 h came to 16.8 ng/mL, the Tmax at 1 h stood at 24 min and the bioavailability at 1 h came out at 13%. Also, the IC50 in [5] is 77.6 nM. In addition, in series [6], the fubrain is reported as 2.2% and the fuplasma is 4.7%. Further, in series [10], the CLint scaled (usually the rate of metabolic loss divided by the concentration) worked out at 374 mL/min/kg. For the same compound, in series [10] (0.5 mg/kg), the AUC(0-inf) – broadly, the area under the concentration-time curve extrapolated to infinity – at 1 h was found to be 22.6 ng·h/mL; the Vd (usually the apparent volume that relates the amount in the body to the concentration in plasma or blood) at 1 h was 10.9 L/kg; the half-life (commonly the time needed for the level to fall by half in the phase considered) at 1 h was 24 min. In addition, the solubility at 24 h in series [7] worked out at 28 µM (≈ 13.8 µg/mL). The compound also came in with a microsomal CLint at 0.5 h, 2 µM in series [4] of 175 µL/min/mg.

Compound `CCCCN(Cc1ccc2[nH]ccc2c1)C(=O)c1ccc(S(=O)(=O)Nc2ccccc2)cc1` [Compound 51, N-Butyl-N-(1H-indol-5-ylmethyl)-4-(phenylsulfamoyl)benzamide] showed a microsomal CLint at 2 μM in series [3] of 357 µL/min/mg. For the same compound, in series [9] (po, 3 mg/kg), the Cmax at 1 h was 4.6 ng/mL, the Tmax at 1 h came out at 60 min and the bioavailability at 1 h is 2%. In [6], the fubrain was less than 0.1% and the fuplasma is 1.3%. Besides, in series [10], the CLint scaled is 67.8 mL/min/kg. In [10] (1 mg/kg), this compound had an AUC(0-inf) at 1 h of 247 ng·h/mL, a Vd at 1 h of 2.3 L/kg and a half-life at 1 h of 30 min. In series [7], this compound returned a solubility at 24 h of 3 µM (≈ 1.38 µg/mL). In addition, the microsomal CLint at 2 μM in [4] was 121 µL/min/mg. In [11], the Kp (commonly the ratio of the level in a tissue or fluid to that in plasma or blood) at 1 h stood at 0.4 and the Kp uu at 1 h was less than 0.03.

For `CN(CCO)c1ccc(CN(CC2CC2)C(=O)c2ccc(S(=O)(=O)Nc3ccccc3)cc2)nc1` [Compound 77, N-(Cyclopropylmethyl)-N-[[5-[2-hydroxyethyl(methyl)amino]-2-pyridyl]methyl]-4-(phenylsulfamoyl)benzamide], the Papp in series [2] was 0.5 ×10⁻⁶ cm/s. Besides, the “Microsomal CLint Rat” value in series [3] (rat microsomes, 2 μM compound) is on record as “Rapid”. Moreover, the microsomal CLint at 2 μM in series [4] turned out to be 109 µL/min/mg.

In turn, `O=C(c1ccc(S(=O)(=O)Nc2ccccc2)cc1)N(Cc1ccc(NCCO)cn1)CC1CC1` [Compound 74, N-(Cyclopropylmethyl)-N-[[5-(2-hydroxyethylamino)-2-pyridyl]methyl]-4-(phenylsulfamoyl)benzamide] showed a microsomal CLint at 0.5 h, 2 µM in series [3] of 114 µL/min/mg. Also, in series [9] (po, 3 mg/kg), the Cmax at 1 h turned out to be 50.8 ng/mL, the Tmax at 1 h was found to be 24 min and the bioavailability at 1 h was determined as 15%. In addition, the IC50 in series [5] is 661 nM. In series [6], this compound showed a fubrain of 2.8% and a fuplasma of 8.0%. This compound registered a CLint scaled in [10] of 51.9 mL/min/kg. Further, in series [10] (1 mg/kg), the AUC(0-inf) at 1 h stood at 322 ng·h/mL, the Vd at 1 h worked out at 1.8 L/kg and the half-life at 1 h was 42 min. The microsomal CLint at 0.5 h, 2 µM in series [4] stood at 42 µL/min/mg.
